Values after ≈ are worked out from the molar mass of the structure shown.
How the values were obtained:
[1] = test system: cultured mouse leukemia cell P388; experiment: inhibition of growth of cultured cells; format: cell-based; settings: read-out: median inhibition dose, ID50
Description: The anti-tumor activity of substance MG883-12F2 can be confirmed by measuring its ability to inhibit the growth of known cultured cells. For example, the median inhibition dose, ID50, of substance MG883-12F2 against cultured mouse leukemia cell P388 was 0.5 mg/ml.

[2] = anti-tumor activity compared with streptonigrin; settings: comparison with streptonigrin, no data given
[3] = cytotoxicity compared with streptonigrin; settings: comparison with streptonigrin, no data given

COc1ccc(-c2c(C)c(C(=O)O)nc(-c3ccc4c(n3)C(=O)C(N)=C(O)C4=O)c2N)c(O)c1OC [substance MG883-12F2]
IC50 [1]: 500 mg/L (≈ 1020 µM)
anti-tumor activity [2]: slightly inferior to streptonigrin
cytotoxicity [3]: lower cytotoxicity

Source: patent EP0185979A1, “A novel substance having anti-tumor activity, a microbiological process for the preparation thereof and its use as a medicament” (MICROBIAL CHEMISTRY RESEARCH FOUNDATION, priority 1984, dated 1986)
